Measured values from BindingDB's records for doi:10.1016/0014-2999(93)90488-4 (Maryland Psychiatric Research Center, 1993).

How the values were obtained:
D(4) dopamine receptor = molecular target: T1, D(4) dopamine receptor (Homo sapiens, UniProt P21917)
T1 sequence (P21917 whole entry): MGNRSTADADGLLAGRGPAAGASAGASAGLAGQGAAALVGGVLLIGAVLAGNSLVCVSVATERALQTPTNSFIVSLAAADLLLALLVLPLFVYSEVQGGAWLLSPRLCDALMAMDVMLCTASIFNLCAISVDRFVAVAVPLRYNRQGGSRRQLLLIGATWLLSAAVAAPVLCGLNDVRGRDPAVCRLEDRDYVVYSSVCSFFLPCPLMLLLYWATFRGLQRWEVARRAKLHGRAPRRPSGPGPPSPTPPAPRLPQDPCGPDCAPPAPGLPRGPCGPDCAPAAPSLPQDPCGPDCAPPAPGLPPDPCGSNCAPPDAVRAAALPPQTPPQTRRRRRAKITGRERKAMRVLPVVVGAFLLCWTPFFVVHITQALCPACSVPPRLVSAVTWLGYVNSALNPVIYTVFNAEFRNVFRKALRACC

D(2) dopamine receptor = D(2) dopamine receptor (Homo sapiens, UniProt P14416)
D(2) dopamine receptor, sequence (P14416 whole entry): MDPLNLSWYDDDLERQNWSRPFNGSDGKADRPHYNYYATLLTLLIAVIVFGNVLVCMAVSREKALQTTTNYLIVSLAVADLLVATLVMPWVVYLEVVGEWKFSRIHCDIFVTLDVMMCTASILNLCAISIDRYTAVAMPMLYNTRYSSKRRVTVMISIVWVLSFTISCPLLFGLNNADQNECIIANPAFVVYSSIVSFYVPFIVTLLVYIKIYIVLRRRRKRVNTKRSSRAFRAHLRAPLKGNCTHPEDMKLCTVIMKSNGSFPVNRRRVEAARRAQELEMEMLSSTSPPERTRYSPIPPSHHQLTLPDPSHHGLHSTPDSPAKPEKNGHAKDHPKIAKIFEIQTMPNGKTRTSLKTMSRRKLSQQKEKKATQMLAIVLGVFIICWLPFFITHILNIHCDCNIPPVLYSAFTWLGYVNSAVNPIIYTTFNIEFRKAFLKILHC

Row | Compound | Ki (D(4) dopamine receptor) | Ki (D(2) dopamine receptor)
1 | O=C(O)c1ccccc1C(=O)Nc1cccc2ccccc12 [NPA,(+)] | 120 nM | 291 nM
2 | CN1CCN(C2=Nc3ccccc3Oc3ccc(Cl)cc32)CC1 [13-chloro-10-(4-methylpiperazin-1-yl)-2-oxa-9-azatricyclo[9.4.0.0^{3,8}]pentadeca-1(11),3,5,7,9,12,14-heptaene] | 29 nM | 
3 | CC1CCN(CCCC(=O)c2ccc(F)cc2)CC1 [CAS_3575-80-2] | 139 nM | 
4 | CCCN1CCCC(c2cccc(O)c2)C1 (configuration not stated) [CAS_85976-54-1] | 546 nM | 
5 | CCN(CC)C(=O)N[C@H]1C[C@@H]2c3cccc4[nH]cc(c34)C[C@H]2N(C)C1 | 5.2 nM | 0.7 nM
6 | CCCN(CCC)C1C=Cc2c(OC)cccc2C1C (configuration not stated) [CAS_5311190] | 66.5 nM | 29.4 nM
7 | CCN1CCC[C@H]1CNC(=O)c1c(O)c(Cl)cc(Cl)c1OC [3,5-Dichloro-N-(1-ethyl-pyrrolidin-2-ylmethyl)-2-hydroxy-6-methoxy-benzamide (raclopride)] | 1340 nM | 
8 | CCCOc1ccc2nc(NC(=O)OC)[nH]c2c1 [SMR000058208] | 152 nM | 
9 | CSc1ccc2c(c1)N(CC[C@@H]1CCCCN1C)c1ccccc1S2 [10-[2-(1-Methyl-piperidin-2-yl)-ethyl]-2-methylsulfanyl-10H-phenothiazine (thioridazine)] | 22.9 nM | 
10 | CN1CCN(CCCN2c3ccccc3Sc3ccc(C(F)(F)F)cc32)CC1 |  | 1.1 nM
11 | CN1C[C@@H](NC(=O)C(C)(C)C)CC2c3cccc4[nH]c(Cl)c(c34)C[C@H]21 (some centres not stated) [SDZ-208-912] | 3.5 nM | 0.9 nM
12 | CCCN[C@@H]1CCc2c(OC)cccc2[C@@H]1C | 132 nM | 120 nM
